Here are results for 5 compounds from US20110318768A1, “METHOD FOR DETERMINING SENSITIVITY OF TUMOR CELLS TO TYROSINE KINASE INHIBITOR AND COMPUTER PROGRAM PRODUCT” (SYSMEX CORPORATION, priority 2010, published 2011).

Assay in all cases: Tyrosine kinase activity inhibition rate in cell membrane fraction (Poly-Glu4-Tyr substrate)
Holding throughout (assay type): biochemical

Assay [1] has as its system tyrosine kinase in cell membrane fraction of HCC1937. Particulars: 25 μM kinase inhibitor, 25 μM ATP. Here is the method:
(§1) Breast cancer cell lines shown in Table 3 were cultured in a 150 mm dish so as to be about 80% confluent, the cells were recovered using PBS and a scraper, and a cell pellet was obtained by centrifugal operation (900×g, for 5 minutes, at 4° C.). The pellet was frozen with liquid nitrogen and stored at −80° C. until preparation of the measurement sample.
(§2) 500 μl of NP40 (−) solubilized buffer (20 mM HEPES (pH 7.4)), (w/v) % glycerol, 0.2% protease inhibitor cocktail (#P8340: Sigma-Aldrich (product composition: 104 mM AEBSF, 80 μM aprotinin, 4 mM bestatin, 1.4 mM E-64, 2 mM leupeptin, 1.5 mM Pepstatin A), 50 mM NaF and 200 μM Na3VO4) was added to the cell pellet, followed by stirring for 2 seconds three times using a vortex mixer. After being allowed to stand for 10 minutes, the soluble fraction was removed by centrifugal operation (at 20000×g, for 30 minutes, at 4° C.). The obtained pellet was resuspended in 500 μl of NP40 (−) solubilized buffer, the soluble fraction was again removed by centrifugal operation (at 20000×g, for 20 minutes, at 4° C.), and the pellet was washed. The pellet was resuspended by adding 500 μl of NP40 (+) solubilized buffer (a buffer prepared by adding NP-40 to the NP40 (−) solubilized buffer at a final concentration of 1%) to the pellet, pipetting fifty times, and vortexing for 2 seconds three times. After being allowed to stand for 10 minutes, a cell membrane fraction containing a membrane protein was obtained by centrifugal operation (at 20000×g, for 40 minutes, at 4° C.). The protein concentration of the fraction was measured by DC protein assay (#500-0116 JA: Bio-Rad) and the fraction was used as a sample for kinase activity measurement. The sample was frozen with liquid nitrogen and stored at −80° C. until used for the following kinase activity measurement.
(§3) NeutrAvidin Coated Plates (HBC) (96 white plate; #15509: Pierce) were washed three times with 300 μl of TBS-T (20 mM Tris-HCl (pH 7.4)), 150 mM NaCl, 0.1% Tween), and then 100 μl of Poly-Glu4-Tyr biotin conjugate (#12440: Upstate) which had been diluted to 1 μg/ml with TBS (20 mM Tris-HCl (pH 7.4), 150 mM NaCl) was added to the wells. After shaking at 37° C. and 400 rpm for 90 minutes, the wells were washed with 300 μl of TBS-T three times and a measuring plate was obtained.
(§4) The measurement sample was diluted with a kinase buffer (20 mM HEPES (pH 7.4), 25 mM MgCl2, 1.25 mM MnCl2, 250 μM Na3VO4, 12.5 (w/v) % glycerol) so as to adjust the protein concentration to 6.25 μg/ml. The diluted measurement sample was transferred to wells of a 96 well V bottom plate. A DMSO solution (inhibitor concentration: 5 mM) containing one type of tyrosine kinase inhibitors (Inhibitors 1 to 10 shown in Table 6) was added to the wells at a ratio of 1:160 based on the diluted measurement sample solution, followed by mixing thereof. As the control, DMSO was added to the diluted measurement sample at the same ratio as the solution of the inhibitor. The used tyrosine kinase inhibitors are represented as Inhibitors 1 to 10 in Table 6.
(§5) After addition of the inhibitors, a mixed solution of the measurement sample and the inhibitor was allowed to stand at room temperature for 10 minutes. 40 μl of the mixed solution was transferred to wells of the measuring plate and 10 μl of an ATP solution (20 mM HEPES (pH 7.4), […]) as the phosphate group donor was added to the wells.
(§6) The composition of the solution in the wells is as follows: protein concentration: 5 μg/ml, 20 mM HEPES (pH 7.4), 20 mM MgCl2, 1 mM MnCl2, 200 μM Na3VO4, 10 (w/v) % glycerol, 25 μM ATP, 25 μM kinase inhibitor.
(§7) After shaking the measuring plate at 37° C. and 400 rpm for 60 minutes, the solution was removed from the measuring plate, and the wells were washed with 300 μl of TBS-T three times. 100 μl of Starting Block T20 (TBS) (#37543: Pierce) as a blocking solution was added to the wells, followed by blocking at 37° C. and 400 rpm for 10 minutes. The blocking solution was removed from the measuring plate. […]

Assay [2] has as its system tyrosine kinase in cell membrane fraction of MDA-MB-468. The following applies: 25 μM kinase inhibitor, 25 μM ATP. Here is the method:
as §1, §2, §3, §4, §5, §6, §7

Assay [3] deals with tyrosine kinase in cell membrane fraction of HCC1954. Particulars: 25 μM kinase inhibitor, 25 μM ATP. Here is the method: as §1, §2, §3, §4, §5, §6, §7
For assay [4], the system named is tyrosine kinase in cell membrane fraction of BT-474. Particulars: 25 μM kinase inhibitor, 25 μM ATP. Here is the method:
as §1, §2, §3, §4, §5, §6, §7

Assay [5] relates to tyrosine kinase in cell membrane fraction of MDA-MB-157. Particulars: 25 μM kinase inhibitor, 25 μM ATP. Here is the method: as §1, §2, §3, §4, §5, §6, §7
The test system of assay [6] is tyrosine kinase in cell membrane fraction of MDA-MB-415. The following applies: 25 μM kinase inhibitor, 25 μM ATP. Here is the method:
as §1, §2, §3, §4, §5, §6, §7

Assay [7] has as its system tyrosine kinase in cell membrane fraction of BT-549. The following applies: 25 μM kinase inhibitor, 25 μM ATP. Here is the method:
as §1, §2, §3, §4, §5, §6, §7

Assay [8] has as its system tyrosine kinase in cell membrane fraction of UACC812. The following applies: UACC812; 25 μM kinase inhibitor, 25 μM ATP. As for the experimental part:
as §1, §2, §3, §4, §5, §6, §7

Assay [9] relates to tyrosine kinase in cell membrane fraction of ZR-75-1. The following applies: 25 μM kinase inhibitor, 25 μM ATP. Here is the method:
as §1, §2, §3, §4, §5, §6, §7

Assay [10] has as its system tyrosine kinase in cell membrane fraction of ZR-75-30. Particulars: 25 μM kinase inhibitor, 25 μM ATP. As for the experimental part: as §1, §2, §3, §4, §5, §6, §7
In assay [11] the test system is tyrosine kinase in cell membrane fraction of BT-20. The following applies: 25 μM kinase inhibitor, 25 μM ATP. As for the experimental part: as §1, §2, §3, §4, §5, §6, §7
Assay [12] deals with tyrosine kinase in cell membrane fraction of HCC1569. Particulars: 25 μM kinase inhibitor, 25 μM ATP. As for the experimental part:
as §1, §2, §3, §4, §5, §6, §7

In assay [13] the test system is tyrosine kinase in cell membrane fraction of AU565. The following applies: 25 μM kinase inhibitor, 25 μM ATP. Here is the method: as §1, §2, §3, §4, §5, §6, §7
Assay [14] has as its system tyrosine kinase in cell membrane fraction of HCC1419. Particulars: 25 μM kinase inhibitor, 25 μM ATP. Here is the method: as §1, §2, §3, §4, §5, §6, §7
Assay [15] relates to tyrosine kinase in cell membrane fraction of MDA-MB-436. The following applies: 25 μM kinase inhibitor, 25 μM ATP. As for the experimental part: as §1, §2, §3, §4, §5, §6, §7
Assay [16] deals with tyrosine kinase in cell membrane fraction of MDA-MB-453. Particulars: 25 μM kinase inhibitor, 25 μM ATP. Here is the method:
as §1, §2, §3, §4, §5, §6, §7

The subject of assay [17] is tyrosine kinase in cell membrane fraction of HCC202. The following applies: 25 μM kinase inhibitor, 25 μM ATP. As for the experimental part:
as §1, §2, §3, §4, §5, §6, §7

For `COc1cc2c(cc1OC)-c1[nH]nc(Nc3cccc(F)c3)c1C2` [Inhibitor 6], the Inhibition rate in assay [1] is given as 41.8%; in [2], 1.4%; in assay [3], 41.5%; in [4] it was 30.7%; in [5] it was 49.0%; in [6] it was 50.9%. In addition, the Inhibition rate stood at 50.1% in [7]; 61.4% in [8]; 32.5% in assay [9]; 27.0% in assay [10]; 28.1% in assay [11]; 57.8% in assay [12]. Further, the Inhibition rate in assay [13] is listed as 18.4%; in assay [14], 33.5%; in assay [15], 36.1%; in [16] it was 28.9%; in assay [17], 27.1%.

As to `CCCNC(=O)Nc1ccc(Oc2ncnc3cc(OC)c(OC)cc23)cc1Cl` [Inhibitor 7], the Inhibition rate in assay [1] was 17.3%; in [2], 18.5%; in assay [3] it was 17.6%; in assay [4], 30.3%; in assay [5] it was 11.2%; in [6], 25.1%. For the same compound, the Inhibition rate was determined as 24.0% in assay [7]; 28.5% in [8]; 18.3% in assay [9]; 18.5% in assay [10]; 2.3% in [11]; 16.6% in [12]. In addition, the Inhibition rate came out at 7.1% in assay [13]; 28.4% in assay [14]; 23.1% in assay [15]; 29.4% in [16]; 33.4% in [17].

Turning to `CN(C)c1cc2c(Nc3ccc4c(cnn4Cc4ccccc4)c3)ncnc2cn1` [Inhibitor 4, N4-(1-benzyl-1H-indazol-5-yl)-N6,N6-dimethyl-pyrido-[3,4-d]-pyrimidine-4,6-diamine], the Inhibition rate was found to be 17.9% in assay [1]; 71.6% in assay [2]; 23.2% in [3]; 24.6% in assay [4]; 29.2% in [5]; 19.6% in [6]. The Inhibition rate was determined as 48.8% in [7]; 59.4% in assay [8]; 7.0% in assay [9]; 20.9% in [10]; 32.4% in assay [11]; 37.9% in assay [12]. The Inhibition rate in [13] is on record as −3.8%; in [14] it was 23.8%; in assay [15], 26.3%; in [16] it was 27.9%; in assay [17], 21.3%.

Regarding `CS(=O)(=O)CCNCc1nc(-c2ccc3ncnc(Nc4ccc(OCc5cccc(F)c5)c(Cl)c4)c3c2)cs1.Cl.Cl` [Inhibitor 5, N-[3-chloro-4-[(3-fluorophenyl)methoxy]phenyl]-6-[2-[[[2-(methylsulfonyl)ethyl]amino]methyl]-4-thiazolyl]-4-quinazolineamine dihydrochloride], the Inhibition rate in assay [1] was determined as 42.3%; in [2] it was 75.4%; in [3], 59.5%; in assay [4] it was 42.7%; in [5], 56.1%; in assay [6], 48.1%. The Inhibition rate in assay [7] came out at 68.8%; in [8], 80.4%; in assay [9] it was 44.8%; in assay [10], 64.4%; in assay [11] it was 56.3%; in assay [12], 60.7%. Also, the Inhibition rate was 40.9% in assay [13]; 63.6% in assay [14]; 68.5% in assay [15]; 70.4% in assay [16]; 66.2% in [17].

Regarding `Cc1cc(F)c(Nc2ncnc3cc(OCc4ccccc4)ccc23)cc1O.Cl` [Inhibitor 8], the Inhibition rate in [1] turned out to be 11.1%; in assay [2], 7.1%; in assay [3], 4.1%; in assay [4], 18.0%; in [5], 8.3%; in assay [6], 14.0%. Further, the Inhibition rate in assay [7] is 5.1%; in [8] it was 21.6%; in [9] it was 0.6%; in assay [10], 10.1%; in assay [11] it was 18.5%; in assay [12] it was 15.5%. Moreover, the Inhibition rate was determined as 11.5% in assay [13]; 14.7% in assay [14]; 12.1% in assay [15]; 17.7% in assay [16]; 11.9% in assay [17].
